This is an account of results in patent US6949583B2, “Aminoalkoxybenzoyl-benzofuran or benzothiophene derivatives, method of preparing same and compositions containing same” (Sanofi-Synthelabo, priority 2000, dated 2005).

Where a name gives a salt, the structure may show the parent alone.

`CCCCc1oc2ccc(C(=O)OC(C)C)cc2c1C(=O)c1ccc(CC(O)CN(CCCC)CCCC)cc1` (stereo not shown) (as salt: oxalate) showed a melting point of 90 to 91 °C.

Compound `CCCCN(CCCC)CCCc1ccc(C(=O)c2c(C3CCCCC3)oc3ccc(C(=O)OC(C)C)cc23)cc1` (as salt: oxalate) came in with a melting point of 124 to 126 °C.

`CCCCc1oc2ccc(C(=O)OC(C)C)cc2c1C(=O)c1ccc([C@@H]([C@@H](C)O)N(CCCC)CCCC)cc1` (as salt: oxalate) gave a melting point of 150 to 151 °C.

Turning to `CCCCc1oc2ccc(C(=O)OC(C)C)cc2c1C(=O)c1ccc([C@@H](O)[C@@H](C)N(CCCC)CCCC)cc1` (as salt: oxalate), the melting point was 107 to 108 °C.

`CCCCc1oc2ccc(C(=O)OC)cc2c1C(=O)c1ccc(CN2CCN(CC)CC2)cc1` (as salt: oxalate) yielded a melting point of 220 to 221 °C.

On to `CCCCc1oc(C)c(C(=O)OCC)c1C(=O)c1ccc(CCCN(CCCC)CCCC)cc1` (as salt: oxalate), for which the melting point lay within 133 to 135 °C.

Compound `CCCCN(CCCC)COCc1ccc(C(=O)c2c(C(C)C)oc3ccc(C(=O)OC(C)C)cc23)cc1` (as salt: oxalate) registered a melting point of 106 to 108 °C.

Compound `CCCCN(CCCC)CCCc1ccc(C(=O)c2c(CCCC(=O)OC)oc3ccc(C(=O)OC(C)C)cc23)cc1` (as salt: oxalate) had a melting point of 105 °C.

Consider `CCCCCc1oc2ccc(C(=O)OC(C)C)cc2c1C(=O)c1ccc(CCCN(CCCC)CCCC)cc1` (as salt: oxalate), for which the melting point was 124 to 126 °C.

`CCCCc1oc2ccc(C(=O)OC(C)C)cc2c1C(=O)c1ccc(COCCN(CCCC)CCCC)cc1` (as salt: oxalate) showed a melting point of 73 °C.

`CCCCc1oc2ccc(C(=O)OC(C)C)cc2c1C(=O)c1cc(C)c(CCCN(CCCC)CCCC)c(C)c1` (as salt: oxalate) yielded a melting point of 119 to 121 °C.

Turning to `CCCCc1oc2ccc(C(=O)OC(C)C)cc2c1C(=O)c1ccc(CN(CCCC)CCCC)cc1` (as salt: oxalate), the melting point fell in the range of 107 to 108 °C.

Regarding `CCCCc1oc2ccc(C(=O)OC(C)C)cc2c1C(=O)c1ccc(CCCN(CCCC)CCCC)o1` (as salt: oxalate), the melting point was 75 to 78 °C.

Compound `CCCCc1oc2ccc(C(=O)OC(C)C)cc2c1C(=O)c1ccc(COCCCN(CCCC)CCCC)cc1` (as salt: oxalate) yielded a melting point of 73 to 74 °C.

As for `CCCCc1oc2ccc(C(=O)OC)cc2c1C(=O)c1ccc(C(O)CN(CCCC)CCCC)cc1` (stereo not shown) (as salt: oxalate), the melting point is 124 to 126 °C.

Regarding `CCCCN(CCCC)CCCc1ccc(C(=O)c2c(CCC(=O)OC)oc3ccc(C(=O)OC(C)C)cc23)cc1` (as salt: oxalate), the melting point was 107 to 108 °C.

Compound `CCCCc1oc2ccc(C(=O)OC(C)C)cc2c1C(=O)c1ccc(C(O)CN(CCCC)CCCC)cc1` (stereo not shown) (as salt: oxalate) displayed a melting point of 134 to 135 °C.

`CCCCc1sc2ccc(C(=O)OC(C)C)cc2c1C(=O)c1ccc(CCCN(CCCC)CCCC)cc1` (as salt: oxalate) registered a melting point of 86 to 89 °C.

`CCCCc1oc2ccc(C(=O)OC(C)C)cc2c1C(=O)c1ccccc1CCCN(CCCC)CCCC` (as salt: oxalate) gave a melting point of 85 to 88 °C.

Compound `CCCCc1oc2ccc(C(=O)OC(C)C)cc2c1C1(c2ccc(CCCN(CCCC)CCCC)cc2)OCCO1` (as salt: oxalate) came in with a melting point of 106 to 108 °C.

For the compound `CCCCc1oc2ccc(C(=O)OC)cc2c1C(=O)c1ccc(CN(CCCC)CCCC)cc1` (as salt: oxalate), the melting point lay in the range of 96 to 97 °C.

In the case of `CCCCN(CCCC)CCCc1ccc(C(=O)c2c(CC(C)C)oc3ccc(C(=O)OC(C)C)cc23)cc1` (as salt: oxalate), the melting point was 105 to 107 °C.

As for `CCCCc1oc2ccc(C(=O)OC)cc2c1C(=O)c1ccc(CC(O)CN(CCCC)CCCC)cc1` (stereo not shown) (as salt: oxalate), the melting point lay in the range of 128 to 130 °C.

The compound `CCCCc1oc2ccc(C(=O)OC(C)C)cc2c1C(=O)c1ccc(C(C)(C)CCN(CCCC)CCCC)cc1` (as salt: oxalate) showed a melting point of 92 to 93 °C.

On to `CCCCN(CCCC)CCCc1ccc(C(=O)c2c(C)oc3ccc(C(=O)OC(C)C)cc23)cc1` (as salt: oxalate), for which the melting point was 107 to 108 °C.

`CCCCN(CCCC)CCCc1ccc(C(=O)c2c(CCC)oc3ccc(C(=O)OC(C)C)cc23)cc1` (as salt: oxalate) registered a melting point of 155 to 157 °C.

For the compound `CCCCc1oc2ccc(C(=O)OC(C)C)cc2c1C(=O)c1cc(Cl)c(CCCN(CCCC)CCCC)c(Cl)c1` (as salt: oxalate), the melting point fell in the range of 87 to 89 °C.

As to `CCCCc1oc2cc(C)c(C(=O)OC(C)C)cc2c1C(=O)c1ccc(CCCN(CC)CC)cc1` (as salt: oxalate), the melting point is 155 to 157 °C.

Regarding `CCCCc1oc2ccc(C(=O)OC(C)C)cc2c1C(=O)c1ccc(CN2CCN(CC)CC2)cc1` (as salt: oxalate), the melting point lay within 222 to 224 °C.

In turn, `CCCCc1oc2ccc(C(=O)OC(C)C)cc2c1C(=O)c1cccc(CCCN(CCCC)CCCC)c1` (as salt: oxalate) returned a melting point of 87 to 90 °C.

`CCCCc1oc2ccc(C(=O)OC(C)C)cc2c1C(=O)c1ccc(CCCN(CCCC)CCCC)s1` (as salt: oxalate): the melting point stood at 100 °C.
